According to US8951527B2, “Radioprotectants targeting thrombospondin-1 and CD47” (The United States of America, as represented by the …, priority 2008, dated 2015):
Entries after “also recorded” stand apart in the source; their conditions may differ.

Tests used:
[1] = test system: HUVEC; assay: HUVEC proliferation post-radiation (BrdU incorporation); assay type: cell-based, human; conditions: treated 48 hours before 10 Gy, over 1 week (FIG. 14)
Method: FIG. 14. TSP1 and CD47 antibodies or antisense suppression of CD47 maintain proliferation of irradiated HUVEC. HUVEC were plated in 96-well plates in growth medium and treated with CD47 morpholino (FIG. 14A; *p<0.05, #p<0.01) TSP1, or CD47 antibodies (FIG. 14B; *p<0.05, #p<0.01) and exposed to 10 Gy irradiation 48 hours later. Cell proliferation at the indicated times post-radiation was determined by intracellular BrdU incorporation. Experiments were repeated 3 times, and results presented as the mean±SD.
FIG. 15. HUVEC protected by radioprotective agents are both viable and proliferate at a better rate than untreated cells in culture. Proliferation was assessed by quantifying incorporation of bromodeoxyuridine (BrdU) into newly synthesized DNA using a BrdU Cell Proliferation Assay. HUVEC were seeded into 96 well plates for 24 hours at 37° C., then treated with either antibody A6.1 or B6H12 or peptide 7N3. The treated cells were irradiated at 40 Gy 1 hour later. Control and irradiated plates were assayed for BrdU uptake over 96 hours post-radiation. The assay was performed according to the manufacturer's protocol, and the plates were read at 420 nm.
Cell proliferation assay: Proliferation was assessed by quantifying incorporation of bromodeoxyuridine (BrdU) into newly synthesized DNA using a BrdU Cell Proliferation Assay (Calbiochem, La Jolla, Calif.). Primary murine wild type, TSP1, TSP2, and CD47 null lung endothelial cells were seeded into 96 well plates at 5×10^4 cells/well density. After 24 hours incubation at 37° C. treatment groups were irradiated at 40 Gy. Control and irradiated plates were assayed for BrdU uptake over 24 hours starting at 48 to 168 hours post-radiation. The assay was performed according to the manufacturer's protocol, and the plates were read at 420 nm.
Proliferative capacities were also determined in endothelial cells exposed to high doses of radiation of 40 Gy. […] The assay was performed according to the manufacturer's protocol, and the plates were read at 420 nm.

[2] = test system: C57BL/6 wild type mice; assay: Hindlimb irradiation (25 Gy), skin reaction / tissue necrosis grading and histology; assay type: in vivo, mouse; conditions: 10 μM in 750 μl PBS local-regional, 48 hours before 25 Gy, 8 weeks
Method: FIG. 16. CD47 suppression using an antisense morpholino minimizes tissue damage from radiation injury. Age and sex matched C57BL16 wild type mice underwent a one-time treatment of the right hindlimb with either a murine specific CD47 morpholino oligonucleotide (10 μM in 750 μl PBS) or 750 μl of PBS injected local-regionally to the muscle and soft tissues. […] At the end of 8 weeks, there was a considerable amount of alopecia, dry desquamation and early signs of fibrotic contractures within the irradiated hind limbs of mice receiving only PBS. […] The tissue necrosis grading scores for 8 animals are presented as mean±SD (FIG. 16B) and show a similar trend throughout the 8-week observation period.
Skin reaction: Skin reaction following hind limb irradiation was quantified every week following treatment for 8 weeks using a previously described grading system (Flanders et al., Am J Pathol 163:2247-2257, 2003). The grading system consisted of 5 categories: normal, hair loss, erythema, dry desquamation and moist desquamation/ulceration.
Irradiation of mice: Age and sex matched wild type mice underwent local irradiation to the right hindlimb as described in Example 1. Forty-eight hours prior to irradiation, animals received the CD47 morpholino (SEQ ID NO: 4), a control morpholino (SEQ ID NO: 5) (both at 10 μM in […] PBS via intramuscular injection), vehicle, or no treatment to the hind limb. Under 1% isoflurane inhalation anesthesia, the animals were placed in customized Lucite jigs that allow for immobilization and selective irradiation of the right hindlimb. A single radiation dose of 25 Gy was delivered by a Therapax® DXT300 X-ray irradiator (Pantak, Inc., East Haven, Conn.) using 2.0-mm A1 filtration (300 kVp) at a dose rate of 2.53 Gy/min. Care was taken to avoid irradiation of other body parts by using lead shields specifically designed as a part of the jigs. After irradiation, the animals were placed in cages as indicated above and observed weekly. Skin reaction after hind limb irradiation was quantified every week after treatment for 8 weeks using a previously described grading system (Flanders et al., Am J. Pathol 163:2247-2257, 2003). Briefly, tissue necrosis grading system consists of 5 categories: normal, hair loss, erythema, dry desquamation, and moist desquamation/ulceration.
Age and sex matched C57BL16 wild type mice underwent a one-time treatment of the right hindlimb with the CD47 antisense morpholino oligonucleotide (10 μM in 750 μl PBS), a mismatched control morpholino, or vehicle (PBS) injected local-regionally to the muscle and soft tissues.

[3] = test system: HUVEC; assay: HUVEC cell viability after irradiation (MTT / CellTiter 96); assay type: cell-based, human; conditions: for survival / cell death of irradiated HUVEC (MTT): 40 Gy or no radiation, 48 hours post radiation (FIG. 22); for cell viability after graded doses of peptide and radiation: peptide 1 hour before 0, 10, 20, 30, 40 Gray, 72 hours (FIG. 12)
Method: FIG. 11. Radioprotective activities of TSP1 and CD47 antibodies, a CD47 binding peptide from TSP1, and a CD47 morpholino. HUVEC were plated on 96-well plates in standard growth medium. Cells were treated with TSP1 (FIG. 11A) or CD47 (FIG. 11B) monoclonal antibodies (clone A6.1 or B6H12, respectively) and received the indicated doses of radiation 24 hours after addition of the antibodies. Cell (mitochondrial) viability was measured 48 hours post irradiation using an MTT assay. Cells were treated using peptide 7N3 (FIG. 11C) and control peptide 604 (FIG. 11D), subjected to the same experimental conditions, and assayed via MTT. […] Experiments were repeated 3 times and results presented as the mean±SD.
(§1) FIG. 12. Peptides 7N3 and C6d are radioprotective to HUVEC in culture. Human umbilical vein endothelial cells (HUVEC) grown in EGM medium in 96-well plates were treated with graded doses of a peptide agent, as indicated. One hour later, cells were exposed to a single dose of gamma radiation (0, 10, 20, 30, and 40 Gray) and allowed to incubate 72 hours at 37° C. Cell viability was determined with the CellTiter 96 AQueous One Solution Cell Proliferation Assay.
(§2) Cell Viability Assay. HUVEC were plated at a density of 5000 cells/well in 96 well plates (Nunc), and were treated 24 hours later with either the indicated doses of a CD47 antibody (B6H12), a TSP1 antibody (A6.1), the CD47-binding peptide 7N3, or control peptide 604. One hour later the cells were exposed to a single dose of gamma radiation (0, 10, 20, 30, and 40 Gy) and allowed to incubate another 72 hours at 37° C. Experiments done with B16E10 melanoma cells in Example 4 were done in a similar manner treating either 1 hour prior to a single dose of radiation (10 Gy) with peptide 7N3 or 48 hours prior with CD47 morpholino. Cell viability was determined using the CellTiter 96 Aqueous One Solution cell proliferation assay (Promega, Madison, Wis.) as per the manufacturer's instructions and absorbance at 490 nm was determined using an MR580 Microelisa AutoReader (Dynatech, Alexandria, Va.). The same assay was performed on HUVEC using either the CD47 or CD36 morpholino, but 48 hours were allowed to pass prior to radiation (0 or 40 Gy) to allow for suppression of the target proteins. Similarly, control experiments were performed using the nitric oxide synthase (NOS) inhibitor L-NAME, a membrane permeable cGMP analogue, 8-Bromo cGMP, or the NO donor DETA/NO.
as §1, with “In an additional experiment to test the effect of” for “FIG. 12. Peptides 7N3 and C6d are”, “peptides, human” for “to HUVEC in culture. Human”

[4] = test system: HAVSMC; assay: HAVSMC cell viability after irradiation (CellTiter 96); assay type: cell-based, human; conditions: greater doses of radiation (FIG. 13)
Method: FIG. 13. Peptide 7N3 is radioprotective to HAVSMC in culture. Human aortic vascular smooth muscle cells (HAVSMC) were also subjected to the CellTiter 96 Aqueous One Solution cell proliferation assay (Promega, Madison, Wis.).
as §2, with “Similarly, control experiments were performed using the nitric oxide synthase (NOS) inhibitor L-NAME, a membrane permeable cGMP analogue, 8-Bromo cGMP, or the NO donor DETA/NO.” left out

[5] = test system: B16F10 melanoma cells; assay: B16F10 melanoma cell viability after irradiation in vitro; assay type: cell-based, mouse; conditions: 7N3 1 hour or morpholino 48 hours before 10 Gy, versus untreated cells
Method: FIG. 19. CD47 suppression enhances re-growth delay in irradiated syngeneic B16 melanoma and squamous cell carcinoma tumors but increases radioresistance of B16 cells in vitro. C57BL/6 mice were injected with 1×10^6 B16 mouse melanoma cells into their right hindlimbs. Five days later, the mice were randomized into 4 groups (12 mice in each group) where they either received injections of CD47 morpholino (10 μM) in sterile PBS, PBS, or no injection. The two groups receiving injections were then subjected to radiation (10 Gy) to the effected hindlimb 48 hours later. The other two groups served as controls and consisted of tumor alone or tumor subjected to only the morpholino. Tumors were followed post-radiation for 30 days, measuring their volume every 6 days (FIG. 19A). […] Cell (mitochondrial) viability was measured 48 hours post radiation using the MTT assay.
Cell Viability Assay. […] Cell viability was determined using the CellTiter 96 Aqueous One Solution cell proliferation assay (Promega, Madison, Wis.) as per the manufacturer's instructions and absorbance at 490 nm was determined using an MR580 Microelisa AutoReader (Dynatech, Alexandria, Va.). […]
Irradiation of cells. […] The dose rate at 50 cm from the x-ray source was 242 cGy/minute, as determined by multiple thermo luminescent dosimeter readings.

## control morpholino: mismatched control morpholino from GeneTools (CGTGACAGCCACGACCGACTGCGCA; all phosphorodiamidate morpholino (PMO)) [reference compound]
[1]
  proliferation (BrdU incorporation / DNA synthesis) after 10 Gy: not
[2]
  skin reaction / tissue damage of irradiated hindlimb: significant alopecia, dry and wet desquamation, and tissue ulceration with fibrous contracture

## NCCN(CCN)/[N+]([O-])=N/O [DETA/NO, reference compound]
[3]
  survival / cell death of irradiated HUVEC (MTT): did not confer a significant survival advantage

## CD36 morpholino: antisense morpholino specific for the TSP1 receptor CD36 (antisense ATGGGCTGTGACCGGAACTGTGGGC; all phosphorodiamidate morpholino (PMO)) [reference compound]
[3]; morpholino 48 hours before radiation (FIG. 11E, F)
  cell viability post radiation after morpholino pretreatment: no radioprotection; also recorded: decrease in cellular viability similar to that of untreated cells
[1]
  proliferation (BrdU incorporation / DNA synthesis) after 10 Gy: not seen

## FIRGGMYEGKK [compound 604, control peptide, reference compound]
[3]
  cell viability after graded doses of peptide and radiation: virtually no protection

## FIRVVMYEGKK [7N3]
[3]; antibody or peptide before radiation, 0-40 Gy (FIG. 11A-D)
  cell (mitochondrial) viability post irradiation: enhanced cell survival post-irradiation
[3]
  cell viability after graded doses of peptide and radiation: protective effect
[4]
  cell viability after radiation: profound radioprotective protective effect
[5]
  cell viability after 10 Gy: mild radioprotective effect

## HIGWKDFTAYRWRLS [C6d, radioprotective peptide]
[3]
  cell viability after graded doses of peptide and radiation: protective effect

## Nc1nc2c(nc(Br)n2[C@@H]2O[C@@H]3COP(=O)(O)O[C@H]3[C@H]2O)c(=O)[nH]1 [cell permeable cGMP analog, 8-Bromo cyclic guanine monophosphate, reference compound]
[3]
  survival / cell death of irradiated HUVEC (MTT): did not confer a significant survival advantage
